Assay type in all cases: biochemical
Experiment [1] deals with T1, recombinant mouse PREP (rmPREP) (Mus musculus, UniProt Q9QUR6).
T1 construct: purchased R&S system (so in the source)
The experiment is described as follows: PREP enzymatic activity assay. As to conditions: Z-Gly-Pro-AMC substrate. On the procedure: (§1) 7-Amino-4-Methylcoumarin (AMC) release was detected by measuring fluorescence at Ex/Em 380/460 nm using a Multifunction Microplate Reader (Synergy 4, Biotek). All measurements were carried out in triplicate.

Experiment [2] deals with T2, recombinant human FAPα (rhFAPα) (Homo sapiens, UniProt Q12884).
T2 construct: purchased R&S system (so in the source)
T2 sequence (Q12884 1-760): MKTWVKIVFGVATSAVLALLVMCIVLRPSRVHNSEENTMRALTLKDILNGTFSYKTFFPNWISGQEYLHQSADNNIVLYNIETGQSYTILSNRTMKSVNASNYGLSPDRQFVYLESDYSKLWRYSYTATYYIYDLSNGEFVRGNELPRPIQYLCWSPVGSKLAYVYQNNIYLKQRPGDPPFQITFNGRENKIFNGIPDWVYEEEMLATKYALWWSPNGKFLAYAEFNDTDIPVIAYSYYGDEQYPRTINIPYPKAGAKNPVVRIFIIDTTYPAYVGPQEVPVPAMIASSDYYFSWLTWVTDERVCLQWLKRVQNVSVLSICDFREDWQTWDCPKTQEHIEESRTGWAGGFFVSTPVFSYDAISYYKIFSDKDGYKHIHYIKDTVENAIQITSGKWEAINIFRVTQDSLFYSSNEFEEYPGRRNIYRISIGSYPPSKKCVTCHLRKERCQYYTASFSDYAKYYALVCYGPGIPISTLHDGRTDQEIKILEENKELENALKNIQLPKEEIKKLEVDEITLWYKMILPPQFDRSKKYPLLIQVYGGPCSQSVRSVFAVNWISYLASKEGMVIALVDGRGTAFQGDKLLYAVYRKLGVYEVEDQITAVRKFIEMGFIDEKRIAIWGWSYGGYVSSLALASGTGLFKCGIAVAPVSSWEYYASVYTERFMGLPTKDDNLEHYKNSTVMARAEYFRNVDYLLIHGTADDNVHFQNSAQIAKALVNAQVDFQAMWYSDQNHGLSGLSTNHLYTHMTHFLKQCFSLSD
The experiment in a line: FAPα enzymatic exopeptidase (dipeptidase) activity assay. As to conditions: for IC50: exopeptidase, read-out: rhFAPα (exo IC50).

Experiment [3] deals with T3, recombinant mouse DPPIV (rmDPPIV) (Mus musculus, UniProt P28843).
T3 construct: purchased R&S system (so in the source)
T3 sequence (P28843 whole entry): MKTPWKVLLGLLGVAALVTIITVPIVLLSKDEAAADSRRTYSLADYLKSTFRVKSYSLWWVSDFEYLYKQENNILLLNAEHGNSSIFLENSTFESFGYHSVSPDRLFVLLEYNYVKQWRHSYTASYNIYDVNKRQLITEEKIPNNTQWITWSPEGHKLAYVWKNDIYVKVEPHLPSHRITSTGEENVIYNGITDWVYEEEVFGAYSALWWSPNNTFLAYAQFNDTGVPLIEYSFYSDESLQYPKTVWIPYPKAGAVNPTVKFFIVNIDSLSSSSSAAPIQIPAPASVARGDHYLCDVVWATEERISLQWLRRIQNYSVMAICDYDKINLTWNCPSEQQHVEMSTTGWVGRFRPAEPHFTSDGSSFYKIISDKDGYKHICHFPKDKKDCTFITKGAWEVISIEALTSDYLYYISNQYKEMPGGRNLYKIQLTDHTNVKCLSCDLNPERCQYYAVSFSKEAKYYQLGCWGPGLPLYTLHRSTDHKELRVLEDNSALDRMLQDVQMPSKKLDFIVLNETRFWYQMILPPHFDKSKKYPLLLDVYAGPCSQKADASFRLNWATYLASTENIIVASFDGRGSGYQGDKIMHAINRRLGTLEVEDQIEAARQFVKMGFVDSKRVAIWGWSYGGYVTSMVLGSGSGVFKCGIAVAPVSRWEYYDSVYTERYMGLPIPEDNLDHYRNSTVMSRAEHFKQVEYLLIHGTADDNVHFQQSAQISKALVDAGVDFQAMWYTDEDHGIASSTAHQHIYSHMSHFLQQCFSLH
The experiment in a line: DPPIV enzymatic activity assay. As to conditions: H-Gly-Pro-pNA substrate.

The target of experiment [4] is T4, recombinant human PREP (rhPREP) (Homo sapiens, UniProt P48147).
T4 sequence (P48147 1-710): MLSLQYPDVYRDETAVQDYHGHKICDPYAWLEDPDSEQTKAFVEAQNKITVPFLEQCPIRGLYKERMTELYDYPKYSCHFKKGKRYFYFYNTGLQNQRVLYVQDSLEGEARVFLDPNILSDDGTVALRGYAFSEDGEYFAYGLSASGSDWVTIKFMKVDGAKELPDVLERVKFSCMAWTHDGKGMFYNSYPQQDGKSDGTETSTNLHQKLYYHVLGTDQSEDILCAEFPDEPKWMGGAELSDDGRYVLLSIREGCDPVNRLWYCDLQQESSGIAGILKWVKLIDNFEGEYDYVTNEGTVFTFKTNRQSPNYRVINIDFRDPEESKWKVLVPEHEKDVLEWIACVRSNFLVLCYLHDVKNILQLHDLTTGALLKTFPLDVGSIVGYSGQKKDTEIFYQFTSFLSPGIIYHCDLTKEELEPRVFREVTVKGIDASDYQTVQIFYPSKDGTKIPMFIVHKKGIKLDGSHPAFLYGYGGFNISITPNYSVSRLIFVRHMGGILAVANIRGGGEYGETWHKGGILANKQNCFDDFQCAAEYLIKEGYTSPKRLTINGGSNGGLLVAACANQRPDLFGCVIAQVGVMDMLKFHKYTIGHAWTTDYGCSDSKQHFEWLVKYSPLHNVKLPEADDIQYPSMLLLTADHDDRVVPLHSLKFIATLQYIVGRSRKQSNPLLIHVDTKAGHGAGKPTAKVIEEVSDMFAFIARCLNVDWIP
The experiment in a line: PREP enzymatic activity assay. The following applies: Z-Gly-Pro-AMC substrate. On the procedure:
as §1

For experiment [5], the target named is T5, recombinant mouse FAPα (rmFAPα) (Mus musculus, UniProt P97321).
T5 construct: purchased R&S system (so in the source)
T5 sequence (P97321 1-761): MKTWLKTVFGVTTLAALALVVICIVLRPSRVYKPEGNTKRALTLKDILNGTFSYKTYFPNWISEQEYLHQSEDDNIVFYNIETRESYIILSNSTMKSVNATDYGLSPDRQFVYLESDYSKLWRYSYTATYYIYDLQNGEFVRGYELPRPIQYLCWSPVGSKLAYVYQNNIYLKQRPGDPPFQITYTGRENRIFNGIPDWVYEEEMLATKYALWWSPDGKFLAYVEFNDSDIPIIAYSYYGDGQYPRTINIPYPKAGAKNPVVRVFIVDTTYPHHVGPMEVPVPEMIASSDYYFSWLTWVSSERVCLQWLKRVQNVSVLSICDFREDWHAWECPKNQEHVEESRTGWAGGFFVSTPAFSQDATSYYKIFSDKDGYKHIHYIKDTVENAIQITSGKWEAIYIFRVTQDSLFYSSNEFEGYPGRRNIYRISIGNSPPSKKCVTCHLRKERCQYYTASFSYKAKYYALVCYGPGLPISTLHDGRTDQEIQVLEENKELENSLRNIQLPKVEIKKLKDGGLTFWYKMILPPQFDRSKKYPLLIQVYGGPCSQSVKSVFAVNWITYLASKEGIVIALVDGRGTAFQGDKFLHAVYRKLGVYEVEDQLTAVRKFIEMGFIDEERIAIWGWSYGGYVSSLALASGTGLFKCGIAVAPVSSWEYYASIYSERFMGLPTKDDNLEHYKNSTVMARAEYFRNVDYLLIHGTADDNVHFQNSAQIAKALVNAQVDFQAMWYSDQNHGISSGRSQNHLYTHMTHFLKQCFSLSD
The experiment in a line: FAPα enzymatic exopeptidase (dipeptidase) activity assay. As to conditions: for IC50: exopeptidase, read-out: rmFAPα (exo IC50).

In experiment [6] the target is T5, recombinant mouse FAPα (rmFAPα). The description is as above. The following applies: 1 μM test compound; Z-Gly-Pro-AMC substrate; read-out: rmFAPα (% exo inh @ 1 μM). Here is the method: FAPα enzymatic exopeptidase (dipeptidase) activity assay. […] 7-Amino-4-Methylcoumarin (AMC) release was detected by measuring fluorescence at Ex/Em 380/460 nm using a Multifunction Microplate Reader (Synergy 4, Biotek). All measurements were carried out in duplicate. […] For the calculations, the average measurements from reactions containing only vehicle and substrate, without enzyme, were used as a blank and were subtracted from the rest of the measurements. Percent inhibition was calculated using the average measurements from reactions containing vehicle, enzyme, and substrate as the maximum of enzymatic activity. Measurements were performed as a single point.

Experiment [7] concerns the target T6, recombinant human DPPIV (rhDPPIV) (Homo sapiens, UniProt P27487).
T6 construct: purchased R&S system (so in the source)
The experiment in a line: DPPIV enzymatic activity assay. The following applies: H-Gly-Pro-pNA substrate.

Experiment [8] addresses T7, recombinant human DPP9 (rhDPP9) (Homo sapiens, UniProt Q86TI2).
T7 construct: purchased R&S system (so in the source)
The experiment in a line: DPP9 enzymatic activity assay. The following applies: H-Gly-Pro-AMC substrate. Here is the method: as §1

Like-named read-outs stand apart in the source and are kept apart here.

Usually IC50 stands for the concentration needed to halve the response being measured.

T1 sequence (Q9QUR6 whole entry): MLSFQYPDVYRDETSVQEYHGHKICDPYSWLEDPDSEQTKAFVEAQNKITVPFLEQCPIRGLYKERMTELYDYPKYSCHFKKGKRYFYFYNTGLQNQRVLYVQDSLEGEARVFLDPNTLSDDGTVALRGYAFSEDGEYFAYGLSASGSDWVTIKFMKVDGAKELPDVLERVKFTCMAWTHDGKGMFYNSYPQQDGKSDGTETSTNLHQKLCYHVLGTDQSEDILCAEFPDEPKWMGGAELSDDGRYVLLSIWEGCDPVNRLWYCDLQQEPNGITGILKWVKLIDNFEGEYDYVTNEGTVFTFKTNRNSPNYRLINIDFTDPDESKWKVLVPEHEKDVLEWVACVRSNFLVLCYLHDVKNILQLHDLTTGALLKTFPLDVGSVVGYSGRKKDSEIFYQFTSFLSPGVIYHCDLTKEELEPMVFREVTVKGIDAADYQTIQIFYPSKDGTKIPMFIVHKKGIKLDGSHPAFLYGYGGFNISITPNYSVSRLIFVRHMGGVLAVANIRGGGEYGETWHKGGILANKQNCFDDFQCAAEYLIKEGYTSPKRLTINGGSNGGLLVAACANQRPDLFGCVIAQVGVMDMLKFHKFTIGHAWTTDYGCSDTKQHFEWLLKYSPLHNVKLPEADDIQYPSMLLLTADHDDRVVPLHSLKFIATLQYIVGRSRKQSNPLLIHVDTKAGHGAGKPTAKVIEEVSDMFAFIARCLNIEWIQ
T6 sequence (P27487 whole entry): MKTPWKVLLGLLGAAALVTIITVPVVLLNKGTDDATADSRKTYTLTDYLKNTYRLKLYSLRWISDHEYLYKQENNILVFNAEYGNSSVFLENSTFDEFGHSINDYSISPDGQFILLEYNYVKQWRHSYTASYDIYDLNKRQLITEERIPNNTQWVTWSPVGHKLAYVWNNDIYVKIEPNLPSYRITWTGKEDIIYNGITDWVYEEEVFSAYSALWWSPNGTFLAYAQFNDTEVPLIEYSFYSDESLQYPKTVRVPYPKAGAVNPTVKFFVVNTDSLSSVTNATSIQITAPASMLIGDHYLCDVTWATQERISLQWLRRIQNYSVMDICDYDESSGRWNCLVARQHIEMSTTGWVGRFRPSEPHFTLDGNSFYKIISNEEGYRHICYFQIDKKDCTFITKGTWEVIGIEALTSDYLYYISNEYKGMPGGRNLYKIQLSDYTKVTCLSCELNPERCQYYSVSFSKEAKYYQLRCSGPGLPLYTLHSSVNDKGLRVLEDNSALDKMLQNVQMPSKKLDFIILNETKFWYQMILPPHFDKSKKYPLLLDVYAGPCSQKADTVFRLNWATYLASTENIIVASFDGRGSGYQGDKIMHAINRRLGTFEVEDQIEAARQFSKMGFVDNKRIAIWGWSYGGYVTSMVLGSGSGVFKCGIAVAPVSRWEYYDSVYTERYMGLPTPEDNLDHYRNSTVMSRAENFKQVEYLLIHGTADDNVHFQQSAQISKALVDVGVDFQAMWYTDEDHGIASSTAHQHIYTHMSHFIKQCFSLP
T7 sequence (Q86TI2 whole entry): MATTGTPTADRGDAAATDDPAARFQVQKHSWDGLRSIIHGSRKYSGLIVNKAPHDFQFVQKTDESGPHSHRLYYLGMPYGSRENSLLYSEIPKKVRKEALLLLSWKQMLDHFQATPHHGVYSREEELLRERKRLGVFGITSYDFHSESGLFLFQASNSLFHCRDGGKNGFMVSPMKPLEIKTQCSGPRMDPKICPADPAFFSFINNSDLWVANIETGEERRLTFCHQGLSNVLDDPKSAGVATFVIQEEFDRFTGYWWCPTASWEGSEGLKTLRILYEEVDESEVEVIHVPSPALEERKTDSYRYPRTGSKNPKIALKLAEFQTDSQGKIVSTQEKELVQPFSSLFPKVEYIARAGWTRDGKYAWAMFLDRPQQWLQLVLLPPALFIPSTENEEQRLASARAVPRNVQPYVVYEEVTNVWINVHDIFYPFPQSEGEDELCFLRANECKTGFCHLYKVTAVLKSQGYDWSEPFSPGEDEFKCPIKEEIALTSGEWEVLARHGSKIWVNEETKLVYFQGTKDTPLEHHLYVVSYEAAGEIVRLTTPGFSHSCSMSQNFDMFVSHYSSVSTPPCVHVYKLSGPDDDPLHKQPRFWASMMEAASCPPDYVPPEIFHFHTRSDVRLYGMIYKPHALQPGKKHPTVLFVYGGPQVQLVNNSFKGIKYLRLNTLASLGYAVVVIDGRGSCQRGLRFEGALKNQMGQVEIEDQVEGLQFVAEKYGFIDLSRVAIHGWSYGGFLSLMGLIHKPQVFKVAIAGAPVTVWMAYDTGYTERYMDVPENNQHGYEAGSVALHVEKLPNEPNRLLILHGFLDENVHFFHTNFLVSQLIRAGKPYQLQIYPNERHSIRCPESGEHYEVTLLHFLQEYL

For `Cn1cc(C(=O)NCC(=O)N2CC(F)(F)C[C@H]2C#N)ccc1=O` [Compound 16, (S)—N-(2-(2-cyano-4,4-difluoropyrrolidin-1-yl)-2-oxoethyl)-1-methyl-6-oxo-1,6-dihydropyridine-3-carboxamide], the IC50 in experiment [1] was greater than 10 µM; in experiment [2] (Table 2, Z-Gly-Pro-AMC) it was less than 1 µM; in experiment [2] (Table 3), less than 1 µM; in experiment [3], greater than 10 µM. Moreover, in experiment [2] (read-out: rhFAPα (% exo inh @ 1 μM)), the inhibition at 1 µM was greater than 50%.
As to `N#C[C@@H]1CC(F)(F)CN1C(=O)CNC(=O)c1ccc2ncccc2c1` [Example 4, (S)—N-(2-(2-cyano-4,4-difluoropyrrolidin-1-yl)-2-oxoethyl)quinoline-6-carboxamide], the IC50 in experiment [1] was greater than 10 µM; in experiment [4], greater than 10 µM; in experiment [2] (Table 2, Z-Gly-Pro-AMC) it was less than 1 µM; in experiment [5] (Table 2, Z-Gly-Pro-AMC), less than 1 µM; in experiment [5] (Table 3) it was less than 1 µM; in experiment [3] it was 1 to 10 µM. The 50% inhibitory concentration (IC50) in experiment [7] was greater than 10 µM. Also, the inhibition at 1 µM in experiment [6] is greater than 50%.
`N#C[C@@H]1CC(F)(F)CN1C(=O)CNC(=O)c1ccc(=O)[nH]c1` [Example 6, (S)—N-(2-(2-cyano-4,4-difluoropyrrolidin-1-yl)-2-oxoethyl)-6-oxo-1,6-dihydropyridine-3-carboxamide]: the IC50 in experiment [2] (Table 2, Z-Gly-Pro-AMC) was less than 1 µM; in experiment [5] (Table 2, Z-Gly-Pro-AMC) it was less than 1 µM; in experiment [5] (Table 3) it was less than 1 µM; in experiment [3], greater than 10 µM; in experiment [7] it was greater than 10 µM. In addition, the inhibition at 1 µM in experiment [5] (read-out: rmFAPα (% exo inh @ 1 μM)) was greater than 50%.
As for `N#C[C@@H]1CC(F)(F)CN1C(=O)CNC(=O)C1Cc2ccccc2C1` [Example 7, (S)—N-(2-(2-cyano-4,4-difluoropyrrolidin-1-yl)-2-oxoethyl)-2,3-dihydro-1H-indene-2-carboxamide], the inhibition at 1 µM in experiment [6] is less than 25%.
Take `N#C[C@@H]1CC(F)(F)CN1C(=O)CNC(=O)N1Cc2ccccc2C1` [Example 8, (S)—N-(2-(2-cyano-4,4-difluoropyrrolidin-1-yl)-2-oxoethyl) isoindoline-2-carboxamide]: the inhibition at 1 µM in experiment [6] is less than 25%.
As to `Cn1cc(C(=O)NCC(=O)N2CC(F)(F)C[C@H]2C#N)c2ccccc2c1=O` [Example 9, (S)—N-(2-(2-cyano-4,4-difluoropyrrolidin-1-yl)-2-oxoethyl)-2-methyl-1-oxo-1,2-dihydroisoquinoline-4-carboxamide], the IC50 in experiment [1] was less than 1 µM; in experiment [2] (Table 2, Z-Gly-Pro-AMC), less than 1 µM; in experiment [2] (Table 3), less than 1 µM; in experiment [5] (Table 2, Z-Gly-Pro-AMC), less than 1 µM; in experiment [5] (Table 3), less than 1 µM; in experiment [3], greater than 10 µM. The IC50 in experiment [8] is greater than 10 µM. The inhibition at 1 µM in experiment [6] was greater than 50%.

Source of the values: US11780821B2, “Inhibitors of fibroblast activation protein” (Praxis Biotech LLC, priority 2017, dated 2023).
